pIC50: −log10 of the molar value.
The compounds below were run against T1, Protein deacetylase HDAC6 (Homo sapiens, UniProt Q9UBN7) (assay: Inhibition of human full length HDAC6 expressed in baculovirus expression system using FAM-RHKK(Ac)-NH2 as substrate incubated for 5 hrs by […] endpoint assay).
T1 sequence (Q9UBN7 whole entry): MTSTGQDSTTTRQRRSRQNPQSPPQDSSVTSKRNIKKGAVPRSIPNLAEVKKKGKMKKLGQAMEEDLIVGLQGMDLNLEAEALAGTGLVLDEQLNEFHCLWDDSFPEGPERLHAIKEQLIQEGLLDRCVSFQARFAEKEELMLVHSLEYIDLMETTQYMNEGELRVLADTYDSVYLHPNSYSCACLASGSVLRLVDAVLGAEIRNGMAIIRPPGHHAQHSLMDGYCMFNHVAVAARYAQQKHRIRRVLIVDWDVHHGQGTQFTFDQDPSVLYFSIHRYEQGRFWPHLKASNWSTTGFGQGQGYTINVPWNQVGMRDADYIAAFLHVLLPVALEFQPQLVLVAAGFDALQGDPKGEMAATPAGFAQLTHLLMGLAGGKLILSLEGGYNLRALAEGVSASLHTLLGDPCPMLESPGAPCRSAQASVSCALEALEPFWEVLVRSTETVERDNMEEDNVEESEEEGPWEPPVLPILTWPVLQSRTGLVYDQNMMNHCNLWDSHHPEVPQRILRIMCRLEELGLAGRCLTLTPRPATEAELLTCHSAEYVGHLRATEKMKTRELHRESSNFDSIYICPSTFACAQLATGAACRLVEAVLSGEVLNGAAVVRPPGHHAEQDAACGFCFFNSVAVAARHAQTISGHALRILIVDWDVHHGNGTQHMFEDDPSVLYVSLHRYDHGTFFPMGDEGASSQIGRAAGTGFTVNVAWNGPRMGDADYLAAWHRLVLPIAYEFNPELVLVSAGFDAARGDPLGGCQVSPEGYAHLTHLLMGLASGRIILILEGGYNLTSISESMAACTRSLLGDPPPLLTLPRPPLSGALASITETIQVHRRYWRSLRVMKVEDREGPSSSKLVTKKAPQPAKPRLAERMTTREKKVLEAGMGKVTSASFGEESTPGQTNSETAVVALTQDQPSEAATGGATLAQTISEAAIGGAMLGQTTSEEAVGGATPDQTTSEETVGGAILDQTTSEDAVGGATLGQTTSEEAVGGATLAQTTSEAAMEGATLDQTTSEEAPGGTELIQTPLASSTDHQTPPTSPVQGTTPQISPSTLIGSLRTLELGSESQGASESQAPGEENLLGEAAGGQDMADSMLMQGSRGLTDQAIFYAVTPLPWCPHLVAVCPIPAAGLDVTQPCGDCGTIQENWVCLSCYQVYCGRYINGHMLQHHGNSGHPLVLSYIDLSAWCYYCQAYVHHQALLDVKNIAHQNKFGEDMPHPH

pIC50, 9.00:
O=C(NO)c1ccc(CN2CC3(CCOC3)C2)c(F)c1
O=C(NO)c1cc(F)c2c(c1)CCn1cccc1-2
CN1Cc2cc(C(=O)NO)ccc2CN1Cc1ccccc1
CN1CC2(CCCCC2)CC[C@H]1Cc1cc(F)cc(C(=O)NO)c1
O=C(NO)c1cc(F)c2c(c1)CCN(C1CCC1)C2
Cn1c2c(c3ccccc31)CCN(Cc1ccc(C(=O)NO)cc1F)C2
